Reference: patent publication US20230277632A1, “MODIFIED PlySs2 LYSINS AND ANTIBIOTIC COMBINATIONS FOR USE AGAINST GRAM-POSITIVE BACTERIA” (ContraFect Corporation, priority 2020, published 2023)
In brackets after ≈: the same amount, converted by molar mass. Several values for one entry are separate records, joined by “and”; a condition that tells them apart may be missing. Identical values can stand only once.

How the values were obtained:
S. aureus isolates [1] = assay: MIC determination (broth microdilution) against 8 S. aureus isolates; type: cell-based; settings: CAMHB Ca^2+, unit assumed
Description: Suitable methods for assessing the activity of a modified lysin polypeptide as disclosed herein are well known in the art and described in the examples. […] For example, MIC values for a modified lysin polypeptide may be determined against e.g., laboratory Staphylococcus aureus strains, in e.g., Mueller-Hinton broth or Mueller-Hinton broth supplemented with serum, such as horse serum.
The pp296 MICs were determined based on (1) cation-adjusted Mueller-Hinton Broth with 25% horse serum and 0.5 mM DTT (caMHB-HSD); (2) human serum (100% serum); and (3) ICR mice (100% serum). Vancomycin and daptomycin MICs of the isolate strains were determined in accordance with the broth microdilution method as outlined by CLSI. Results of the MIC determination are shown below in Table 2. The bacterial isolates were frozen at −80° C. in skim milk.

S. aureus isolates [2] = assay: In vivo efficacy of daptomycin in combination with pp296, neutropenic murine thigh infection model; settings: 24 h; for Replicate Log10 CFU/thigh data: daptomycin alone
Description: Study animals: Specific pathogen-free female ICR mice (average body weight 23 grams) were provided food and water ad libitum and maintained and used in accordance with National Research Council recommendations. Animals were allowed a 48-hour post-delivery acclimation period before every experiment. Mice were rendered transiently neutropenic by injection of cyclophosphamide via intraperitoneal (IP) route at a dose of 150 mg/kg of body weight at four days before bacterial inoculation and 100 mg/kg of body weight at one day before bacterial inoculation.
Neutropenic Thigh Infection Model: Two transfers of the bacterial isolates were performed onto trypticase soy agar plates with 5% sheep blood and placed into an incubator at 37° C. for approximately 24 hours. After an 18-24 hour incubation of the second transfer, a suspension of approximately 10^7 CFU/mL was made for inoculation. Final bacterial inoculum concentrations were confirmed by serial dilution and plating techniques. Thigh infection with the test isolate was produced by intramuscular injection of 0.1 mL of the bacterial inoculum into each thigh of the mice. Antimicrobial therapy was initiated 2 hours after bacterial inoculation, as detailed below.
Untreated control mice (n=3) were sacrificed just prior to antibiotic administration and 24 hours after bacterial inoculation. Animals sacrificed prior to antibiotic initiation served as 0-hour control animals, representing initial bacterial burden. […] Treatment mice (n=3/group) were sacrificed at the end of the 24 hour treatment period. After sacrifice, both thighs for each mouse were homogenized in normal saline. Serial dilutions were plated on Trypticase soy agar with 5% sheep blood and incubated for 18 to 20 hours at 37.0 to determine the CFU. Efficacy was calculated as the change in bacterial density obtained in treated mice after 24 hours compared with the numbers in the 0-hour control animals. Bacterial density represents the average CFU determined from 3 mice, each contributing 2 thighs.
For the 4 S. aureus isolates HPV107, CAIRD426, JMI227, and NRS123, the following sub-therapeutic daptomycin dosage regimen was adopted: 0.76 mg/kg at 0 hrs, 0.4 mg/kg at 4 hrs, 0.24 mg/kg at 10 hrs, and 0.12 mg/kg at 17 hrs.

S. aureus = assay: pp296 dose fractionation study, neutropenic murine thigh infection model; type: in vivo; settings: sub-therapeutic daptomycin SC alone, 24 h
Description: Each of the pp296 TDDs was fractionated into three regimens, i.e., one-third of the entire dose was administered via IV three times (q8h); one-half of the entire does was administered via IV two times (q12h), or the entire dose was administered via IV once daily over a 24-hour period, for a total of three groups per each TDD.
Untreated control mice (n=3/group) were sacrificed just prior to antibiotic administration, as well as 24 hours later. Animals sacrificed prior to antibiotic administration served as 0-hour control animals, representing initial bacterial burden. The 24-hour control animals received sterile normal saline in the same volume and schedule as the most frequent active drug regimen. […] After the 24-hour treatment period, all animals were euthanized and thighs were cultured quantitatively as described above. The change in bacterial density was calculated for each of the dosing regimen. Comparisons were made between the different regimens of the same total daily dose on bacterial burdens at 24 hours using one-way Analysis of Variance (ANOVA) test followed by Tukey's test where the P value was 0.05.

`CCCCCCCCCC(=O)N[C@@H](Cc1c[nH]c2ccccc12)C(=O)N[C@H](CC(N)=O)C(=O)N[C@@H](CC(=O)O)C(=O)N[C@@H]1C(=O)NCC(=O)N[C@@H](CCCN)C(=O)N[C@@H](CC(=O)O)C(=O)N[C@H](C)C(=O)N[C@@H](CC(=O)O)C(=O)NCC(=O)N[C@H](CO)C(=O)N[C@@H]([C@H](C)CC(=O)O)C(=O)N[C@@H](CC(=O)c2ccccc2N)C(=O)O[C@@H]1C` [Daptomycin, daptomycin] showed an MIC Daptomycin (CAMHB Ca^2+) (S. aureus isolates [1]; ATCC 29213 MSSA) of 1 µg/mL (≈ 0.617 µM), an MIC Daptomycin (CAMHB Ca^2+) (S. aureus isolates [1]; CAIRD426 MRSA) of 1 µg/mL (≈ 0.617 µM) and an MIC Daptomycin (CAMHB Ca^2+) (S. aureus isolates [1]; HPV107 MRSA) of 0.5 µg/mL (≈ 0.309 µM). It also gave an MIC Daptomycin (CAMHB Ca^2+) (S. aureus isolates [1]; JMI227 MRSA) of 0.5 µg/mL (≈ 0.309 µM), an MIC Daptomycin (CAMHB Ca^2+) (S. aureus isolates [1]; JMI4789 MRSA) of 1 µg/mL (≈ 0.617 µM) and an MIC Daptomycin (CAMHB Ca^2+) (S. aureus isolates [1]; NRS100 (COL) MRSA) of 0.5 µg/mL (≈ 0.309 µM). For the same compound, the MIC Daptomycin (CAMHB Ca^2+) (S. aureus isolates [1]; NRS123 (MW2) MRSA) was 1 µg/mL (≈ 0.617 µM), the MIC Daptomycin (CAMHB Ca^2+) (S. aureus isolates [1]; NRS271 MRSA/LRSA) was 0.5 µg/mL (≈ 0.309 µM) and the “Replicate Log10 CFU/thigh data” value (S. aureus isolates [2]; isolate ATCC2921, 0.475/0.25/0.15/0.075 mg/kg at 0/4/10/17 hrs) was 8.02 Log10 CFU/thigh and 8.04 Log10 CFU/thigh and 7.79 Log10 CFU/thigh and 8.03 Log10 CFU/thigh and 6.18 Log10 CFU/thigh and 7.38 Log10 CFU/thigh. The “Replicate Log10 CFU/thigh data” value (S. aureus isolates [2]; isolate CAIRD426, 0.76/0.4/0.24/0.12 mg/kg at 0/4/10/17 hrs) was 8.16 Log10 CFU/thigh and 8.20 Log10 CFU/thigh and 7.59 Log10 CFU/thigh and 8.18 Log10 CFU/thigh and 7.47 Log10 CFU/thigh and 7.35 Log10 CFU/thigh, the “Replicate Log10 CFU/thigh data” value (S. aureus isolates [2]; isolate HPV107, 0.76/0.4/0.24/0.12 mg/kg at 0/4/10/17 hrs) was 7.16 Log10 CFU/thigh and 7.34 Log10 CFU/thigh and 7.24 Log10 CFU/thigh and 7.08 Log10 CFU/thigh and 6.74 Log10 CFU/thigh and 5.77 Log10 CFU/thigh and the “Replicate Log10 CFU/thigh data” value (S. aureus isolates [2]; isolate JMI227, 0.76/0.4/0.24/0.12 mg/kg at 0/4/10/17 hrs) was 5.93 Log10 CFU/thigh and 6.08 Log10 CFU/thigh and 6.48 Log10 CFU/thigh and 6.73 Log10 CFU/thigh and 6.86 Log10 CFU/thigh and 6.89 Log10 CFU/thigh. The “Replicate Log10 CFU/thigh data” value (S. aureus isolates [2]; isolate JMI4789, 0.475/0.25/0.15/0.075 mg/kg at 0/4/10/17 hrs) was 8.00 Log10 CFU/thigh and 6.85 Log10 CFU/thigh and 8.63 Log10 CFU/thigh and 8.52 Log10 CFU/thigh and 8.14 Log10 CFU/thigh and 7.21 Log10 CFU/thigh, the “Replicate Log10 CFU/thigh data” value (S. aureus isolates [2]; isolate NRS100, 0.475/0.25/0.15/0.075 mg/kg at 0/4/10/17 hrs) was 4.83 Log10 CFU/thigh and 5.29 Log10 CFU/thigh and 6.67 Log10 CFU/thigh and 7.76 Log10 CFU/thigh and 6.20 Log10 CFU/thigh and 7.09 Log10 CFU/thigh and the “Replicate Log10 CFU/thigh data” value (S. aureus isolates [2]; isolate NRS123, 0.76/0.4/0.24/0.12 mg/kg at 0/4/10/17 hrs) was 6.73 Log10 CFU/thigh and 7.28 Log10 CFU/thigh and 6.86 Log10 CFU/thigh and 7.09 Log10 CFU/thigh and 5.81 Log10 CFU/thigh and 6.81 Log10 CFU/thigh. The “Replicate Log10 CFU/thigh data” value (S. aureus isolates [2]; isolate NRS217, 0.475/0.25/0.15/0.075 mg/kg at 0/4/10/17 hrs) was 7.94 Log10 CFU/thigh and 7.84 Log10 CFU/thigh and 7.89 Log10 CFU/thigh and 7.92 Log10 CFU/thigh and 8.01 Log10 CFU/thigh and 8.02 Log10 CFU/thigh, the “average bacterial growth vs starting inoculum” value (S. aureus isolates [2]; sub-therapeutic daptomycin alone, 8 isolates) was 1.47±0.80 log10 CFU/thigh and the “bacterial burden vs 0-hour control mice” value (S. aureus) was 0.82±0.44 log10 CFU/thigh.
